Assay results from patent US10889589B2, “Bicyclic urea, thiourea, guanidine and cyanoguanidine compounds useful for the treatment of pain” (Array BioPharma Inc., priority 2012, dated 2021).

Target: recombinant human TrkA (Homo sapiens (Human), UniProt P04629)
Experiment: TrkA Kinase Binding Assay (LanthaScreen Eu)
Settings: averaged IC50; read-out: TrkA Enzyme IC50
Method: TrkA binding activity was determined in a TrkA LanthaScreen™ Eu Kinase Binding Assay. 5 nM His-tagged recombinant human TrkA (6HIS tagged cytoplasmic domain from Invitrogen, Catalog No. PV3144) was incubated with 4 nM Alexa-Fluor® Tracer 236 (Invitrogen Cat. No. PV5592), 2 nM biotinylated anti-His (Invitrogen Cat. No. PV6090), and 2 nM europium-labeled Streptavidin (Invitrogen Cat. No. PV5899), in buffer (25 mM MOPS, pH 7.5, 5 mM MgCl2, 0.005% Triton X-100). Three fold serial dilutions of compounds of the invention in DMSO were added to a final percentage of 2% DMSO. After 60-minute incubation at 22° C., the reaction was measured using the EnVision mutlimode plate reader (PerkinElmer) via TR-FRET dual wavelength detection at […]. The percent of control was calculated using a ratiometric emission factor. The IC50 values were determined by fitting a four parameter model to the percent of control data.
Table A provides averaged IC50 values for compounds of the invention when tested in the assay of Example A, where A represents an averaged IC50 value <100 nM; B represents an averaged IC50 value from 100 to 1,000 nM, and C represents an averaged IC50 value between >1,000 nM and 3,000 nM.

Sequence of recombinant human TrkA (P04629 440-796): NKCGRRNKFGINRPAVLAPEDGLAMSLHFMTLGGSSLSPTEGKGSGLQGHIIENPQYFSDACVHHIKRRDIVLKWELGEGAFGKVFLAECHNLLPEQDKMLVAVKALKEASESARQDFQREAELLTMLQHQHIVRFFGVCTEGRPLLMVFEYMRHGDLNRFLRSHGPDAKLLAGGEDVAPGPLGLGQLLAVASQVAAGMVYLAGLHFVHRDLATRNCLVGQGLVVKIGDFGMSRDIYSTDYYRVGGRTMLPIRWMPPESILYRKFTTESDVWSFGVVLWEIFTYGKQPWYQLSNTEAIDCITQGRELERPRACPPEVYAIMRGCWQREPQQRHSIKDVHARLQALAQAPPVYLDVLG

| Compound | IC50 [nM] |
| --- | --- |
| Cc1c(-c2cnn(C)c2)nn(-c2ccccc2)c1NC(=O)N[C@@H]1c2cc(F)c(F)cc2C2(CC2)[C@H]1O (relative stereo) [Example 58, 1-(trans-5′,6′-difluoro-2′-hydroxy-2′,3′-dihydrospiro[cyclopropane-1,1′-inden]-3′-yl)-3-(1′,4-dimethyl-1-phenyl-1H, 1′H-[3,4′-bipyrazol]-5-yl)urea] | < 100 |
| Cc1nn(-c2ccccc2)c(NC(=O)N[C@@H]2c3cc(C(N)=O)ccc3C(C)(C)C[C@H]2O)c1C (relative stereo) [Example 98, trans-8-(3-(3,4-dimethyl-1-phenyl-1H-pyrazol-5-yl)ureido)-7-hydroxy-5,5-dimethyl-5,6,7,8-tetrahydronaphthalene-2-carboxamide] | 1000 to 3000 |
| Cc1c(NC(=O)N[C@@H]2c3ccccc3C(C)(C)C[C@H]2O)n(-c2ccccc2)[nH]c1=O (relative stereo) [Example 95, 1-(trans-2-hydroxy-4,4-dimethyl-1,2,3,4-tetrahydronaphthalen-1-yl)-3-(4-methyl-5-oxo-2-phenyl-2,5-dihydro-1H-pyrazol-3-yl)urea] | < 100 |
| Cc1c(-c2cnn(C)c2)nn(-c2ccccc2)c1NC(=O)N[C@@H]1c2ccc(F)cc2C2(CC2)[C@H]1O (relative stereo) [Example 64, 1-(1′,4-dimethyl-1-phenyl-1H,1′H-[3,4′-bipyrazol]-5-yl)-3-(trans-6′-fluoro-2′-hydroxy-2′,3′-dihydrospiro[cyclopropane-1,1′-inden]-3′-yl)urea] | < 100 |
| COc1ncc(-c2nn(-c3ccccc3)c(NC(=O)N[C@@H]3c4ccccc4C4(CC4)[C@H]3O)c2C)cn1 (relative stereo) [Example 57, 1-(trans-2′-hydroxy-2′,3′-dihydrospiro[cyclopropane-1,1′-inden]-3′-yl)-3-(3-(2-methoxypyrimidin-5-yl)-4-methyl-1-phenyl-1H-pyrazol-5-yl)urea] | < 100 |
| Cc1c(OCC2CCN(C)CC2)nn(-c2ccccc2)c1NC(=O)N[C@@H]1c2ccccc2CC[C@H]1O (relative stereo) [Example 123, 1-(trans-2-hydroxy-1,2,3,4-tetrahydro-naphthalen-1-yl)-3-(4-methyl-3-((1-methylpiperidin-4-yl)methoxy)-1-phenyl-1H-pyrazol-5-yl)urea] | < 100 |
| COc1nn(-c2ccccc2)c(NC(=O)N[C@@H]2c3cc(F)c(F)cc3C3(CC3)[C@H]2O)c1C (relative stereo) [Example 62, 1-(trans-5′,6′-difluoro-2′-hydroxy-2′,3′-dihydrospiro[cyclo-propane-1,1′-inden]-3′-yl)-3-(3-methoxy-4-methyl-1-phenyl-1H-pyrazol-5-yl)urea] | < 100 |

Second part, the compound after the results:

| IC50 [nM] | Compound |
| --- | --- |
| < 100 | Cc1c(-c2cnn(C)c2)nn(-c2ccccc2)c1NC(=O)N[C@@H]1c2cc(F)ccc2C2(CC2)[C@H]1O (relative stereo) [Example 63, 1-(1′,4-dimethyl-1-phenyl-1H1′H-[3,4′-bipyrazol]-5-yl)-3-(trans-5′-fluoro-2′-hydroxy-2′,3′-dihydrospiro[cyclopropane-1,1′-inden]-3′-yl)urea] |
| < 100 | COC(=O)c1ccc2c(c1)[C@@H](NC(=O)Nc1c(C)c(C)nn1-c1ccccc1)[C@H](O)CC2(C)C (relative stereo) [Example 99, trans-methyl 8-(3-(3,4-dimethyl-1-phenyl-1H-pyrazol-5-yl)ureido)-7-hydroxy-5,5-dimethyl-5,6,7,8-tetrahydronaphthalene-2-carboxylate] |
| < 100 | Cc1ncc(-c2nn(-c3ccccc3)c(NC(=O)N[C@@H]3c4ccccc4C4(CC4)[C@H]3O)c2C)cn1 (relative stereo) [Example 56, 1-(trans-2′-hydroxy-2′,3′-dihydrospiro[cyclopropane-1,1′-inden]-3′-yl)-3-(4-methyl-3-(2-methylpyrimidin-5-yl)-1-phenyl-1H-pyrazol-5-yl)urea] |
